What was measured:
MCF7 [1] = assay: Antiproliferative activity against human MCF7 cells after 72 hrs by MTT assay; assay type: functional, cell-based; conditions: MCF7, 72 h
HepG2 [2] = assay: Antiproliferative activity against human HepG2 cells after 72 hrs by MTT assay; assay type: functional, cell-based; conditions: HepG2, 72 h
A2780S = assay: Antiproliferative activity against human A2780S cells; assay type: functional, cell-based
CHL-1 = assay: Antiproliferative activity against human CHL-1 cells; assay type: functional, cell-based
SK-OV-3 = assay: Antiproliferative activity against human SKOV3 cells; assay type: functional, cell-based
HepG2 [3] = assay: Antiproliferative activity against human HepG2 cells; assay type: functional, cell-based
A549 = assay: Antiproliferative activity against human A549 cells; assay type: functional, cell-based
MCF7 [4] = assay: Antiproliferative activity against human MCF7 cells; assay type: functional, cell-based
HT-29 = assay: Antiproliferative activity against human HT-29 cells; assay type: functional, cell-based
HepG2 [5] = assay: Cell cycle arrest in human HepG2 cells assessed as accumulation at G2/M phase after 24 hrs by RNase A/propidium iodide staining-based flow cytometric analysis; assay type: functional
HeLa = assay: Antiproliferative activity against human HeLa cells after 72 hrs by MTT assay; assay type: functional, cell-based
[6] = Antiproliferative activity against human HCT8/T cells after 72 hrs by MTT assay; assay type: functional, cell-based; conditions: HCT-8, 72 h
HepG2 [7] = assay: Cell cycle arrest in human HepG2 cells assessed as accumulation at S phase at 0.5 uM after 24 hrs by RNase A/propidium iodide staining-based flow cytometric analysis (reference value: 28.30%); assay type: functional
HepG2 [8] = assay: Cell cycle arrest in human HepG2 cells assessed as accumulation at G2/M phase at 0.25 uM after 24 hrs by RNase A/propidium iodide staining-based flow cytometric analysis (reference value: 21.09%); assay type: functional
HepG2 [9] = assay: Cell cycle arrest in human HepG2 cells assessed as accumulation at G1 phase at 0.25 uM after 24 hrs by RNase A/propidium iodide staining-based flow cytometric analysis (reference value: 50.61%); assay type: functional
HepG2 [10] = assay: Cell cycle arrest in human HepG2 cells assessed as accumulation at G2/M phase at 0.5 uM after 24 hrs by RNase A/propidium iodide staining-based flow cytometric analysis (reference value: 21.09%); assay type: functional
DU-145 = assay: Antiproliferative activity against human DU145 cells after 72 hrs by MTT assay; assay type: functional, cell-based; conditions: DU-145, 72 h
Sus scrofa = organism: Sus scrofa; assay: (§1) Inhibition of tubulin polymerization in porcine brain assessed as disruption of tubulin assembly by spectrophotometric analysis
[11] = as §1; set-up: species or system Sus scrofa
HCT-116 = assay: Antiproliferative activity against human HCT116 cells after 72 hrs by MTT assay; assay type: functional, cell-based; conditions: HCT-116, 72 h
B16-F10 = assay: Antiproliferative activity against mouse B16F10 cells after 72 hrs by MTT assay; assay type: functional, cell-based; conditions: B16-F10, 72 h
HepG2 [12] = assay: Cell cycle arrest in human HepG2 cells assessed as accumulation at G1 phase at 0.5 uM after 24 hrs by RNase A/propidium iodide staining-based flow cytometric analysis (reference value: 50.61%); assay type: functional
HepG2 [13] = assay: Cell cycle arrest in human HepG2 cells assessed as accumulation at S phase at 0.25 uM after 24 hrs by RNase A/propidium iodide staining-based flow cytometric analysis (reference value: 28.30%); assay type: functional
MDA-MB-231 = assay: Antiproliferative activity against human MDA-MB-231 cells after 72 hrs by MTT assay; assay type: functional, cell-based; conditions: MDA-MB-231, 72 h

COc1cc(C(=O)/C(C#N)=N/Nc2ccccc2)cc(OC)c1OC
IC50 (MCF7 [1]): 6380 nM | IC50 (HepG2 [2]): 5190 nM

COc1ccc(N/C=C(\C#N)C(=O)c2cc(OC)c(OC)c(OC)c2)cc1
IC50 (A2780S): 1880 nM | IC50 (MCF7 [1]): 1930 nM | IC50 (CHL-1): 1220 nM | IC50 (SK-OV-3): 1270 nM | IC50 (HepG2 [3]): 1200 nM | IC50 (HepG2 [2]): 1380 nM | IC50 (A549): 2090 nM | IC50 (MCF7 [4]): 1840 nM | IC50 (HT-29): 1280 nM

COc1cc(C(=O)/C(C#N)=N/Nc2ccc(Cl)cc2Cl)cc(OC)c1OC
IC50 (MCF7 [1]): > 10000 nM | IC50 (HepG2 [2]): > 10000 nM

CCOc1ccc(N/N=C(\C#N)C(=O)c2cc(OC)c(OC)c(OC)c2)cc1
IC50 (MCF7 [1]): 7010 nM | IC50 (HepG2 [2]): 6620 nM

COc1cc(C(=O)/C(C#N)=N/Nc2ccc([N+](=O)[O-])cc2)cc(OC)c1OC
IC50 (MCF7 [1]): > 10000 nM | IC50 (HepG2 [2]): > 10000 nM

COc1cc(C(=O)/C(C#N)=N/Nc2ccc(C(F)(F)F)cc2)cc(OC)c1OC
IC50 (MCF7 [1]): 3020 nM | IC50 (HepG2 [2]): 2680 nM

COc1ccc(N/N=C(\C#N)C(=O)c2cc(OC)c(OC)c(OC)c2)cc1O
IC50 (MCF7 [1]): 260 nM | Activity (HepG2 [5]): Dose-dependent effect | IC50 (HeLa): 81 nM | IC50 [6]: 3960 nM | Activity (HepG2 [7]): 5.43% | Activity (HepG2 [8]): 78.89% | IC50 (HepG2 [2]): 320 nM | Activity (HepG2 [9]): 4.09% | Activity (HepG2 [10]): 94.12% | IC50 (DU-145): 77 nM | inhibition (Sus scrofa): Dose-dependent effect | IC50 [11]: 900 nM | IC50 (HCT-116): 810 nM | IC50 (B16-F10): 2110 nM | Activity (HepG2 [12]): 0.45% | Activity (HepG2 [13]): 17.01% | IC50 (MDA-MB-231): 720 nM

CCOc1ccccc1N/N=C(\C#N)C(=O)c1cc(OC)c(OC)c(OC)c1
IC50 (MCF7 [1]): > 10000 nM | IC50 (HepG2 [2]): > 10000 nM

COc1cc(C(=O)/C(C#N)=N/Nc2ccc(F)cc2)cc(OC)c1OC
IC50 (MCF7 [1]): 9840 nM | IC50 (HepG2 [2]): 9710 nM

COc1cc(C(=O)/C(C#N)=N/Nc2cccc(C)c2)cc(OC)c1OC
IC50 (MCF7 [1]): 5890 nM | IC50 (HepG2 [2]): 6110 nM

COc1cccc(N/N=C(\C#N)C(=O)c2cc(OC)c(OC)c(OC)c2)c1
IC50 (MCF7 [1]): 8820 nM | IC50 (HepG2 [2]): 6460 nM

COc1ccc(N/N=C(\C#N)C(=O)c2cc(OC)c(OC)c(OC)c2)cc1
IC50 (MCF7 [1]): 280 nM | IC50 (HeLa): 220 nM | IC50 [6]: 4620 nM | IC50 (HepG2 [2]): 440 nM | IC50 (DU-145): 120 nM | IC50 (HCT-116): 3190 nM | IC50 (B16-F10): 3260 nM | IC50 (MDA-MB-231): 2460 nM

COc1cc(N/N=C(\C#N)C(=O)c2cc(OC)c(OC)c(OC)c2)cc(OC)c1OC
IC50 (MCF7 [1]): > 10000 nM | IC50 (HepG2 [2]): > 10000 nM

COc1cc2c(c(OC)c1OC)-c1ccc(OC)c(=O)cc1[C@@H](NC(C)=O)CC2 [COLCHICINE]
IC50 (HeLa): 8.89 nM | IC50 [6]: 227 nM | IC50 (DU-145): 3.45 nM | IC50 (HCT-116): 26.2 nM | IC50 (B16-F10): 44.2 nM | IC50 (MDA-MB-231): 77.6 nM

COc1cc(C(=O)/C(C#N)=N/Nc2ccccc2F)cc(OC)c1OC
IC50 (MCF7 [1]): 1690 nM | IC50 (HepG2 [2]): 2100 nM

COc1cc(C(=O)/C(C#N)=N/Nc2ccc(C)cc2)cc(OC)c1OC
IC50 (MCF7 [1]): 430 nM | IC50 (HeLa): 310 nM | IC50 [6]: 7640 nM | IC50 (HepG2 [2]): 610 nM | IC50 (DU-145): 98 nM | IC50 (HCT-116): 870 nM | IC50 (B16-F10): 2230 nM | IC50 (MDA-MB-231): 2240 nM

— ChEMBL document CHEMBL4265910, “(E)-N-Aryl-2-oxo-2-(3,4,5-trimethoxyphenyl)acetohydrazonoyl cyanides as tubulin polymerization inhibitors: Structure-based bioisosterism design, synthesis, biological evaluation, molecular docking and in silico ADME prediction” (Bioorg Med Chem Lett, 2018)
